Source: ChEMBL document CHEMBL5523705, “High affinity and low PARP-trapping benzimidazole derivatives as a potential warhead for PARP1 degraders” (Eur J Med Chem, 2024)

Columns and labels:
MDA-MB-436 = experiment: Inhibition of cell proliferation in human MDA-MB-436 cells assessed as PARP trapping effect; assay type: functional, cell-based
MCF7 = experiment: Inhibition of cell proliferation in human MCF7 cells; assay type: functional, cell-based
[1] = target: Poly [ADP-ribose] polymerase 1 (Homo sapiens, UniProt P09874); experiment: Inhibition of PARP1 (unknown origin) in presence of DNA and substrate by chemiluminescent assay
Poly [ADP-ribose] polymerase 1, sequence (P09874 whole entry): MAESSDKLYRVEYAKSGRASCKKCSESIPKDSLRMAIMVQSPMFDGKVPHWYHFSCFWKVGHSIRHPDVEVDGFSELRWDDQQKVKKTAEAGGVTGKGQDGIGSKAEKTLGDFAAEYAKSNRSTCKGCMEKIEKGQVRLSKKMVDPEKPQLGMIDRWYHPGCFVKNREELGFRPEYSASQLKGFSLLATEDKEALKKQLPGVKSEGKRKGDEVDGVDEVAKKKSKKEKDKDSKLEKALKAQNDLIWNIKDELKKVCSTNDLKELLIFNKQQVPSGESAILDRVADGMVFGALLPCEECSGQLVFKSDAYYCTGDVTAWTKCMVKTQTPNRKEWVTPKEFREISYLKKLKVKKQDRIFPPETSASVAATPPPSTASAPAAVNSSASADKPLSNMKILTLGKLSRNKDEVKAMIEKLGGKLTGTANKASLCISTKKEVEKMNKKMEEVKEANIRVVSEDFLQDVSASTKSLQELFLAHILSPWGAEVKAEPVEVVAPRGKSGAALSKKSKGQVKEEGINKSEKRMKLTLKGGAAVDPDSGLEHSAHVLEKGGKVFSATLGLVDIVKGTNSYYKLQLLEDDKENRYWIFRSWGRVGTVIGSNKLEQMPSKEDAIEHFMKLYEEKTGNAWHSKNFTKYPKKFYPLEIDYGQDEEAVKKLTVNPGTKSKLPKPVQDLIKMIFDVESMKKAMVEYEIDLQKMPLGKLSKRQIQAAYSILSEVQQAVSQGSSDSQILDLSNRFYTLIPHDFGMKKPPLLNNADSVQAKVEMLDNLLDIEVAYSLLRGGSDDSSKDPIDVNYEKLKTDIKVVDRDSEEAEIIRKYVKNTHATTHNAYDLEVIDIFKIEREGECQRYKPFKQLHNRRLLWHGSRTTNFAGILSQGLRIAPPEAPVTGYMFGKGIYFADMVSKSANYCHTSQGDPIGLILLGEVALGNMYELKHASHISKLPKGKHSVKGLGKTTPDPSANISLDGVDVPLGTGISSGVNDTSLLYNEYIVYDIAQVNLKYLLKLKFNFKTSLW

[2] = Inhibition of cell proliferation in HUVECs; assay type: toxicity, cell-based; conditions: human, HUVEC cells

Compound	IC50 (MDA-MB-436; Homo sapiens, MDA-MB-436)	IC50 (MCF7; Homo sapiens, MCF7)	IC50 [1]	IC50 [2]	IC50 (MDA-MB-436; mda-mb-436)	IC50 (MCF7; mcf7)
NC(=O)c1cccc2[nH]c(-c3ccc(C(=O)NC4CCN(c5ccc(Br)o5)C4)c(F)c3)nc12 (stereo unspecified)	16.4 µM	> 100 µM		> 100 µM		
CC1CN(C(=O)c2ccc(-c3nc4c(C(N)=O)cccc4[nH]3)cc2F)CCN1C(=O)c1ccc(Cl)o1 (stereo unspecified)	21.8 µM	> 100 µM	0.00685 µM	47.8 µM		
NC(=O)c1cccc2[nH]c(-c3ccc(C(=O)NC4CCN(c5ccco5)C4)c(F)c3)nc12 (stereo unspecified)	20.5 µM	> 100 µM	0.009 µM	67.1 µM		
CC1CN(C(=O)c2ccc(-c3nc4c(C(N)=O)cccc4[nH]3)cc2F)CCN1C(=O)c1ccc(Br)o1 (stereo unspecified)	14.9 µM	> 100 µM		52.6 µM		
NC(=O)c1cccc2[nH]c(-c3ccc(C(=O)NC4CCN(c5ccc(Cl)o5)C4)c(F)c3)nc12 (stereo unspecified)	7.6 µM	> 100 µM	0.00438 µM	> 100 µM		
O=C(c1cc(Cc2n[nH]c(=O)c3ccccc23)ccc1F)N1CCN(C(=O)C2CC2)CC1 [OLAPARIB]	23.9 µM	> 100 µM		> 100 µM		
C[C@]1(c2nc3c(C(N)=O)cccc3[nH]2)CCCN1 [VELIPARIB]				> 100 µM	> 100 µM	> 100 µM

Second part, led by results:

IC50 (MDA-MB-436; Homo sapiens, MDA-MB-436)	IC50 (MCF7; Homo sapiens, MCF7)	IC50 [1]	Compound	IC50 [2]	IC50 (MDA-MB-436; mda-mb-436)	IC50 (MCF7; mcf7)
> 100 µM	> 100 µM	0.0541 µM	NC(=O)c1cccc2[nH]c(-c3ccc(C(=O)N4CCN(C(=O)c5ccco5)CC4)cc3)nc12	> 100 µM		
> 100 µM	> 100 µM	0.00462 µM	NC(=O)c1cccc2[nH]c(-c3ccc(C(=O)N4CCN(C(=O)c5csc(Br)n5)CC4)cc3)nc12	> 100 µM		
> 100 µM	> 100 µM	0.0846 µM	Cn1cncc1C(=O)N1CCN(C(=O)c2ccc(-c3nc4c(C(N)=O)cccc4[nH]3)cc2)CC1	> 100 µM		
> 100 µM	> 100 µM	0.0456 µM	Cn1cccc1C(=O)N1CCN(C(=O)c2ccc(-c3nc4c(C(N)=O)cccc4[nH]3)cc2)CC1	> 100 µM		
9.09 µM	> 100 µM	0.00518 µM	Cc1ccoc1C(=O)N1CCN(C(=O)c2ccc(-c3nc4c(C(N)=O)cccc4[nH]3)cc2F)CC1C (stereo unspecified)	85.3 µM		
17.3 µM	> 100 µM	0.00572 µM	Cc1ccc(C(=O)N2CCN(C(=O)c3ccc(-c4nc5c(C(N)=O)cccc5[nH]4)cc3F)CC2C)o1 (stereo unspecified)	> 100 µM		
> 100 µM	> 100 µM	0.0506 µM	NC(=O)c1cccc2[nH]c(-c3ccc(C(=O)N4CCN(C(=O)c5ccccn5)CC4)cc3)nc12	> 100 µM		
> 100 µM	> 100 µM	0.0324 µM	NC(=O)c1cccc2[nH]c(-c3ccc(C(=O)N4CCN(C(=O)c5ccco5)CC4)c(F)c3)nc12	> 100 µM		
